# Experimental data as given in patent US20240083919A1, “Metal Complexes and Methods for the Same” (Colgate-Palmolive Company, priority 2020, published 2024).
# Like-named read-outs stand apart in the source and are kept apart here.
# Tests used:
# Trichophyton rubrum = test: MIC by doubling dilutions, visual turbidity, Trichophyton rubrum; format: cell-based; conditions: for MIC: about 35° C., 3 to 14 days, highest dilution that completely inhibited growth; for Final Dilution (Ratio): doubling dilutions from initial concentration 0.5% (CHA-Zn) or 1% (others)
# Description: A suspension of Trichophyton rubrum was also prepared and exposed to each of the series of doubling dilutions. The samples were incubated at about 35° C. for 3 to 14 days or until growth was apparent in a growth control tube. Following incubation, each of the samples were visually examined for growth on the basis of turbidity. […] It should be appreciated that a relatively lower MIC value indicates a relatively greater efficacy against the microbe.
# Malassezia furfur = test: MIC by doubling dilutions, visual turbidity, Malassezia furfur; format: cell-based; conditions: for MIC: about 35° C., 3 to 5 days, highest dilution that completely inhibited growth; for Final Dilution (Ratio): doubling dilutions from initial concentration 0.5% (CHA-Zn) or 1% (others)
# Description: A suspension of Malassezia furfur was also prepared and exposed to each of the series of doubling dilutions. The samples were incubated at about 35° C. for 3 to 5 days or until growth was apparent in a growth control tube. Following incubation, each of the samples were visually examined for growth on the basis of turbidity.
MIC (Malassezia furfur; read-out: MIC) [µg/mL],MIC (Trichophyton rubrum; read-out: MIC) [µg/mL],Compound,MIC (Trichophyton rubrum) [ppm],Final Dilution (Ratio) (Trichophyton rubrum),Final Dilution (Ratio) (Malassezia furfur),MIC (Malassezia furfur) [ppm],MIC (Malassezia furfur; listed as zinc nitrate) [ppm]
–,–,zinc pyrithione [Zinc pyrithione (ZPT)],20,512,–,–,–
~312,~156,"CCCCCCCC(=O)NO [CHA, caprylhydroxamic acid]",–,64,32,–,–
–,–,"O=[N+]([O-])[O-].O=[N+]([O-])[O-].[Zn+2] [Zinc Nitrate (Zn(NO3)2), zinc nitrate]",~2500,4,2,>5000,> 5000
–,–,caprylhydroxamic-zinc complex [CHA-Zn complex],–,64,64,–,–
–,–,Cc1cc(CC(C)CC(C)(C)C)n(O)c(=O)c1.NCCO (stereo not drawn) [Piroctone Olamine],–,–,64,156,–
